{"source": "patent US6214381A", "about": "“Methazolamide composition and method of use” (Effcon, Inc., priority 1998, dated 2001)", "origin": "cited, not measured here", "conditions": "background statement"}
{"compound": "CC(=O)N=c1sc(S(N)(=O)=O)nn1C", "note": "[Methazolamide, methazolamide]", "values": [{"measurement": "water solubility", "result": "water-insoluble"}]}
